The text below walks through data of patent publication US12157732B2, “eIF4E inhibitors and uses thereof” (PIC Therapeutics, Inc., priority 2021, dated 2024).

In this test the target is T1, Human eIF4E (aa 28-217) / biotin labeled 4G2 peptide (Homo sapiens, UniProt P06730).
T1 construct: Human eIF4E (aa 28-217) with a C-terminal His-tag; made in house
Nature of the test: Human eIF4E/4G2 binding assay (TR-FRET). To be noted: TR-FRET eIF4E/4G2 peptide binding; 4 hours preincubation with eIF4E at room temperature. The protocol: Example 3. Compound Testing in Human eIF4E/4G2 Binding Assay
Human eIF4E (aa 28-217) with a C-terminal His-tag was expressed in E. coli in inclusion bodies. The protein was solubilized with 8 M urea and purified under denaturing conditions using nickel-charged HisTrap HP columns (GE Healthcare). The purified protein was then refolded by diluting in 20 mM Hepes pH 7.0, 0.5 M NaCl, 1 mM DTT, 1 mM EDTA, 0.5 M arginine plus 6 M urea, and then dialyzing overnight into the same buffer without the urea. The protein was further dialyzed into 20 mM Hepes, pH 6.5, 50 mM NaCl, 1 mM EDTA, 1 mM DTT, and concentrated using Hitrap SP sepharose FF columns (GE Healthcare). The concentrated protein was dialyzed into 20 mM Hepes, pH 7.0, 0.5M NaCl, 5 mM DTT and 10% glycerol, and stored at −80° C. until use.
Test compounds (3.43 mM stock in DMSO) were diluted 2-fold in series in DMSO (10 concentration points). Compound solutions (1.2 μl/well) were added into black 384-well polypropylene microplates (Matrix, Thermal Scientific). Twenty-two microliters per well of Assay Buffer (50 mM NaPi, pH 6.5, 50 mM KCl, 1 mM DTT and 0.5 mg/ml gamma globulin) and eight microliters per well of 82.5 nM purified eIF4E in Assay Buffer were added. The samples were incubated at room temperature (20-23° C.) for 4 hours. Biotin labeled 4G2 peptide (Ac-Lys-Gln-Tyr-Asp-Arg-Glu-Phe-Leu-Leu-Asp-Phe-Gln-Phe-Met-Pro-Lys(Aha-Bio)-NH2, 1.75 μM stock in DMSO) was diluted to 0.14 μM in Assay Buffer (without DTT) and 5 μl/well was added. The samples were incubated at room temperature for 20 min. Five microliters per well of 6.4 nM Eu-streptavidin (Eu-SA, Perkin Elmer) and 80 nM Allophycocyanin (APC)-anti His antibody (Columbia Biosciences) in Assay Buffer (without DTT) were then added and the samples were incubated at room temperature for 20 min.
Assay signals were monitored by reading excitation at 340 nm and emission fluorescence at 615 nm and 665 nm on an Envision reader (Perkin Elmer). Normalized TR-FRET (time-resolved fluorescence resonance energy transfer) assay signal (Rn) was calculated by the formula: Rn=[(A−Ba−C×D)/(D−Bd)]×(Dc−Bd) Where A is the fluorescence intensity of the sample at 665 nm, D is the fluorescence intensity of the sample at 615 nm, Ba and Bd are plate backgrounds at 665 nm and 615 nm, respectively, Dc is the fluorescence intensity of 0.78 nM Eu-SA in the assay buffer at 615 nm The cross-talk factor (C) is determined by the following formula: C=(Ac−Ba)/(Dc−Bd) Where Ac is the fluorescence intensity of 0.78 nM Eu-SA in the assay buffer at 665 nm.
IC50 values were calculated using xLFit program (IDBS). Table 3 below lists IC50 of some compounds, wherein A represents IC50<0.5 μM; B represents 500 nM<IC50<1 μM; and C represents IC50>1 μM.
Background: TR-FRET usually uses a lanthanide donor and a delayed reading to cut background.

T1 sequence (P06730 28-217): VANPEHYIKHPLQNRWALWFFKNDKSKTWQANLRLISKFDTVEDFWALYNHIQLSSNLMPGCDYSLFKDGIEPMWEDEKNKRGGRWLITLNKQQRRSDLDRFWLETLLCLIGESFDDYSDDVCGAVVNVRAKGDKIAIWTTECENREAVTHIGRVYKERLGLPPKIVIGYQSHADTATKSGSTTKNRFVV

As a reminder, the IC50 is the concentration that inhibits the measured activity by half. In turn, `COc1ccc(-c2sc(Nc3ncc(-c4cccs4)cc3C(=O)O)nc2C2CC2)cc1` [I-54] showed an IC50 below 500 nM.

Turning to `COc1cc(-c2sc(Nc3ncc(-c4cccs4)cc3C(=O)O)nc2CC(C)C)ccc1F` [I-55], the IC50 is 500 to 1000 nM.
